Data as given in ChEMBL document CHEMBL3046782, “Fungicidial Activity of Benthiavalicarb-isopropyl against Phytophthora infestans and Its Controlling Activity against Late Blight Diseases” (J Pestic Sci, 2005).
≈ marks a conversion by molar mass, not a printed value. Calls of active or inactive are those of the source. The calls are words filed in the database; no cut-off is given here.

Experiments:
[1] = test system: Phytophthora infestans; assay: Antifungal activity against Phytophthora infestans in potato tuber slices assessed as inhibition of cystospore germination at 1 ug/ml after 6 hr relative to control; type: functional
[2] = test system: Phytophthora infestans; assay: Antifungal activity against Phytophthora infestans infected tomato assessed as translaminar activity of controlling late blight at 3 to 100 mg/l after 24 hr; type: functional, organism-based
[3] = test system: Phytophthora capsici; assay: Antifungal activity against Phytophthora capsici IFO 8386 assessed as inhibition of mycelial growth after 5 to 7 days; type: functional, organism-based; conditions: for IC50: read-out: I50
[4] = test system: Phytophthora infestans; assay: Antifungal activity against Phytophthora infestans in potato tuber slices assessed as inhibition of zoosporangia release at 100 ug/ml after 3 hr relative to control; type: functional
[5] = test system: Phytophthora infestans; assay: Antifungal activity against Phytophthora infestans r0-3 assessed as inhibition of mycelial growth after 5 to 7 days; type: functional, organism-based; conditions: for IC50: read-out: I50
[6] = test system: Phytophthora infestans; assay: microbe, parasite or virus in culture; type: functional; conditions: Tuber, in Solanum tuberosum, 48 h
[7] = test system: Phytophthora infestans; assay: microbe, parasite or virus in culture; type: functional; conditions: Tuber, in Solanum tuberosum, 48 h; remark: listed apart in the source
[8] = test system: Phytophthora nicotianae; assay: Antifungal activity against Phytophthora nicotianae IFO 30595 assessed as inhibition of mycelial growth after 5 to 7 days; type: functional, organism-based; conditions: for IC50: read-out: I50
[9] = test system: Phytophthora infestans; assay: Antifungal activity against Phytophthora infestans in potato tuber slices assessed as inhibition of cystospore germination at 0.1 ug/ml after 6 hr relative to control; type: functional
[10] = test system: Phytophthora megasperma; assay: Antifungal activity against Phytophthora megasperma assessed as inhibition of mycelial growth after 5 to 7 days; type: functional, organism-based; conditions: for IC50: read-out: I50
[11] = test system: Phytophthora infestans; assay: Antifungal activity against Phytophthora infestans in potato tuber slices assessed as inhibition of zoosporangia motility at 100 ug/ml after 3 hr relative to control; type: functional, organism-based
[12] = test system: Phytophthora infestans; assay: Antifungal activity against Phytophthora infestans in potato tuber slices assessed as inhibition of zoosporangia motility at 10 ug/ml after 3 hr relative to control; type: functional, organism-based
[13] = test system: Phytophthora infestans; assay: Antifungal activity against Phytophthora infestans infected tomato assessed as control of late blight at 10 mg/l after 12 hr by greenhouse test; type: functional, organism-based
[14] = test system: Phytophthora infestans; assay: Antifungal activity against Phytophthora infestans r1234 assessed as inhibition of mycelial growth after 5 to 7 days; type: functional, organism-based; conditions: for IC50: read-out: I50
[15] = test system: Phytophthora katsurae; assay: Antifungal activity against Phytophthora katsurae assessed as inhibition of mycelial growth after 5 to 7 days; type: functional, organism-based; conditions: for IC50: read-out: I50
[16] = test system: Phytophthora infestans; assay: Antifungal activity against Phytophthora infestans in potato tuber slices assessed as inhibition of zoosporangia germination at 1 ug/ml after 6 hr relative to control; type: functional
[17] = test system: Phytophthora infestans; assay: microbe, parasite or virus in culture; type: functional; conditions: Tuber, in Solanum tuberosum, 48 h; remark: listed apart in the source
[18] = test system: Phytophthora infestans; assay: Antifungal activity against Phytophthora infestans C-3 assessed as inhibition of mycelial growth after 5 to 7 days; type: functional, organism-based; conditions: for IC50: read-out: I50
[19] = test system: Phytophthora cactorum; assay: Antifungal activity against Phytophthora cactorum IFO 30474 assessed as inhibition of mycelial growth after 5 to 7 days; type: functional, organism-based; conditions: for IC50: read-out: I50
[20] = test system: Phytophthora infestans; assay: Antifungal activity against Phytophthora infestans r1234-2 assessed as inhibition of mycelial growth after 5 to 7 days; type: functional, organism-based; conditions: for IC50: read-out: I50
[21] = test system: Phytophthora infestans; assay: Antifungal activity against Phytophthora infestans infected tomato assessed as control of late blight at 25 to 50 g/ha treated 4 to 5 times at 7 day interval; type: functional, organism-based
[22] = test system: Phytophthora infestans; assay: Antifungal activity against Phytophthora infestans infected potato plant assessed as control of late blight at 50 to 75 g/ha treated 4 to 5 times at 7 day interval; type: functional, organism-based
[23] = test system: Phytophthora infestans; assay: Antifungal activity against Phytophthora infestans in potato tuber slices assessed as inhibition of cystospore germination at 10 ug/ml after 6 hr relative to control; type: functional
[24] = test system: Phytophthora infestans; assay: Antifungal activity against Phytophthora infestans in potato tuber slices assessed as inhibition of zoosporangia germination at 0.1 ug/ml after 6 hr relative to control; type: functional
[25] = test system: Phytophthora palmivora; assay: Antifungal activity against Phytophthora palmivora IFO 30285 assessed as inhibition of mycelial growth after 5 to 7 days; type: functional, organism-based; conditions: for IC50: read-out: I50
[26] = test system: Phytophthora infestans; assay: Antifungal activity against Phytophthora infestans in potato tuber slices assessed as inhibition of zoosporangia release at 1 ug/ml after 3 hr relative to control; type: functional
[27] = test system: Phytophthora infestans; assay: Antifungal activity against Phytophthora infestans TK-301 assessed as inhibition of mycelial growth after 5 to 7 days; type: functional, organism-based
[28] = test system: Phytophthora infestans; assay: Antifungal activity against Phytophthora infestans infected tomato assessed as systemic activity of controlling late blight at 100 mg/l after 24 hr; type: functional, organism-based
[29] = test system: Phytophthora infestans; assay: Antifungal activity against Phytophthora infestans in potato tuber slices assessed as inhibition of zoosporangia germination at 10 ug/ml after 6 hr relative to control; type: functional
[30] = test system: Phytophthora infestans; assay: Antifungal activity against Phytophthora infestans in potato tuber slices assessed as inhibition of zoosporangia motility at 1 ug/ml after 3 hr relative to control; type: functional, organism-based
[31] = test system: Phytophthora infestans; assay: Antifungal activity against Phytophthora infestans in potato tuber slices assessed as inhibition of zoosporangia release at 10 ug/ml after 3 hr relative to control; type: functional
[32] = test system: Phytophthora infestans; assay: Antifungal activity against Phytophthora infestans infected tomato assessed as control of late blight at 300 mg/l after 24 hr by greenhouse test; type: functional, organism-based
[33] = test system: Phytophthora porri; assay: Antifungal activity against Phytophthora porri IFO 30416 assessed as inhibition of mycelial growth after 5 to 7 days; type: functional, organism-based; conditions: for IC50: read-out: I50

SMILES: CC(C)OC(=O)N[C@H](C(=O)N[C@H](C)c1nc2ccc(F)cc2s1)C(C)C [BENTHIAVALICARB-ISOPROPYL]
- inhibition at 1 µg/mL [1]: 100%
- Activity [2]: Active
- MIC [3]: 0.03 µg/mL (≈ 0.0786 µM)
- IC50 [3]: 0.01 µg/mL (≈ 0.0262 µM)
- inhibition at 100 µg/mL [4]: 45.5%
- MIC [5]: 0.03 µg/mL (≈ 0.0786 µM)
- IC50 [5]: 0.03 µg/mL (≈ 0.0786 µM)
- inhibition at 10 µg/mL [6]: 97.6%
- inhibition at 0.1 µg/mL [7]: 45.2%
- MIC [8]: 0.1 µg/mL (≈ 0.262 µM)
- IC50 [8]: 0.05 µg/mL (≈ 0.131 µM)
- inhibition at 0.1 µg/mL [9]: 95.5%
- MIC [10]: 0.1 µg/mL (≈ 0.262 µM)
- IC50 [10]: 0.02 µg/mL (≈ 0.0524 µM)
- inhibition [11]: inactive
- inhibition [12]: inactive
- Activity [13]: Active
- MIC [14]: 0.1 µg/mL (≈ 0.262 µM)
- IC50 [14]: 0.02 µg/mL (≈ 0.0524 µM)
- MIC [15]: 0.03 µg/mL (≈ 0.0786 µM)
- IC50 [15]: 0.04 µg/mL (≈ 0.105 µM)
- inhibition at 1 µg/mL [16]: 100%
- inhibition at 1 µg/mL [17]: 96.8%
- MIC [18]: 0.1 µg/mL (≈ 0.262 µM)
- IC50 [18]: 0.03 µg/mL (≈ 0.0786 µM)
- MIC [19]: 0.03 µg/mL (≈ 0.0786 µM)
- IC50 [19]: 0.03 µg/mL (≈ 0.0786 µM)
- MIC [20]: 0.1 µg/mL (≈ 0.262 µM)
- IC50 [20]: 0.03 µg/mL (≈ 0.0786 µM)
- Activity [21]: Active
- Activity [22]: Active
- inhibition at 10 µg/mL [23]: 100%
- inhibition at 0.1 µg/mL [24]: 98.6%
- MIC [25]: 0.1 µg/mL (≈ 0.262 µM)
- IC50 [25]: 0.02 µg/mL (≈ 0.0524 µM)
- inhibition at 1 µg/mL [26]: 0%
- MIC [27]: 0.03 µg/mL (≈ 0.0786 µM)
- IC50 ([27]; read-out: I50): 0.03 µg/mL (≈ 0.0786 µM)
- Activity [28]: Active
- inhibition at 10 µg/mL [29]: 100%
- inhibition [30]: inactive
- inhibition at 10 µg/mL [31]: 0%
- Activity [32]: Active
- MIC [33]: 0.1 µg/mL (≈ 0.262 µM)
- IC50 [33]: 0.02 µg/mL (≈ 0.0524 µM)

SMILES: COCC(=O)N(c1c(C)cccc1C)C(C)C(=O)OC (configuration not stated) [METALAXYL]
- MIC [3]: > 3 µg/mL
- IC50 [3]: 0.62 µg/mL (≈ 2.22 µM)
- MIC [5]: > 10 µg/mL
- IC50 [5]: 0.21 µg/mL (≈ 0.752 µM)
- MIC [8]: > 3 µg/mL
- IC50 [8]: 0.08 µg/mL (≈ 0.286 µM)
- MIC [10]: > 100 µg/mL
- IC50 [10]: 0.34 µg/mL (≈ 1.22 µM)
- MIC [14]: 0.3 µg/mL (≈ 1.07 µM)
- IC50 [14]: 0.09 µg/mL (≈ 0.322 µM)
- MIC [15]: > 100 µg/mL
- IC50 [15]: 0.46 µg/mL (≈ 1.65 µM)
- MIC [18]: 3 µg/mL (≈ 10.7 µM)
- IC50 [18]: 0.15 µg/mL (≈ 0.537 µM)
- MIC [19]: 0.3 µg/mL (≈ 1.07 µM)
- IC50 [19]: 0.03 µg/mL (≈ 0.107 µM)
- MIC [20]: > 10 µg/mL
- IC50 [20]: 0.05 µg/mL (≈ 0.179 µM)
- MIC [25]: > 3 µg/mL
- IC50 [25]: 0.54 µg/mL (≈ 1.93 µM)
- MIC [33]: > 3 µg/mL
- IC50 [33]: 0.08 µg/mL (≈ 0.286 µM)
